From patent US12679839B2, “Cyclin-dependent kinase 7 (CDK7) non-covalent inhibitors” (JANSSEN PHARMACEUTICA NV, priority 2020, dated 2026) come the findings set out here.

System in one series: not given
Test: not given
Details: not given
For orientation: melting point means the temperature of the solid-liquid transition. Regarding `C[C@@H]1Cc2cnc(NC3CCOCC3)nc2CN1C(=O)[C@H]1CCN(C)C[C@@H]1c1ccccc1` [Compound 47], the melting point turned out to be 162.7 °C.

The subject of the next series is RNA polymerase II Serine 5 phosphorylation (Rpb1 CTD), downstream substrate of CDK7. Briefly: Imaging-based cellular RNA PolII Ser5 phosphorylation assay in A549 cells. It counts as cell-based, human. The following applies: Homo sapiens, A549, 3 h, challenged with compound for 3 hours, read-out: pRNA polII Ser5 (A549) pIC50 (converted). Put shortly: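 A549 cells seeded 20 h in DMEM with 1% FBS, then exposed to compound for 3 h at 37 °C; fixed, methanol-permeabilized and immunostained for phospho-Rpb1 CTD Ser5, read by automated imaging. Signal normalized to DMSO (high) and 10 μM LDC4297 (low) controls; IC50 from four-parameter fit of % control vs concentration.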
Consider `C[C@H]1Cc2cnc(NC3CCOCC3)cc2CN1C(=O)[C@H]1CCN(C)C[C@@H]1c1ccccc1` (single isomer, unassigned) [Compound 171a], for which the IC50 was 288 nM.
As to `C[C@@H]1Cc2cnc(N[C@H]3CC[C@H](O)CC3)nc2CN1C(=O)[C@H]1CCN(C)C[C@@H]1c1ccccc1` [Compound 12], the IC50 is 93.3 nM.
The same measure, in the same setting: in the case of `CO[C@H]1CC[C@H](Nc2ncc3c(n2)CN(C(=O)[C@H]2CCN(C)C[C@@H]2c2ccccc2)[C@H]2C[C@@H]32)CC1` [Compound 201] it was about 19.5 nM; in that of `C[C@@H]1Cc2cnc(Nc3ccnn3C)nc2CN1C(=O)[C@H]1CCN(C)C[C@@H]1c1ccccc1` [Compound 79], 2290 nM.
Regarding `Cc1cc(Nc2ncc3c(n2)CN(C(=O)[C@H]2CCN(C)C[C@@H]2c2ccccc2)[C@H](C)C3)ccn1` [Compound 78], the IC50 is about 57.5 nM.
Same read-out and setting: as for `CO[C@H]1CC[C@H](Nc2ncc3c(n2)CN(C(=O)[C@H]2CCN(C)C[C@@H]2c2ccccc2)C2(CC2)C3)CC1` [Compound 192], the figure is 2880 nM; as for `CC(C)N1CCN(C(=O)N2Cc3nc(NC4CCOCC4)ncc3C[C@H]2C)[C@@H](c2ccccc2)C1` [Compound 206], 234 nM; as for `CN1CC[C@H](C(=O)N2Cc3nc(Nc4cnn(C)c4)ncc3[C@@H]3C[C@@H]32)[C@@H](c2ccccc2)C1` [Compound 200], 324 nM.
The same measure, in the same setting: in the case of `CC(C)N1CC[C@H](C(=O)N2Cc3nc(NC4CCOCC4)ncc3C[C@H]2C)[C@@H](c2cccc(Cl)c2)C1` (single isomer, unassigned) [Compound 160] it was 135 nM; in that of `C[C@@H]1Cc2cnc(NCc3ccn(C)n3)nc2CN1C(=O)N1CCN(C)C[C@@H]1c1ccccc1` [Compound 213], 1380 nM.
On the same count and under the same terms, as for `CC(C)n1ccc(CNc2ncc3c(n2)CN(C(=O)[C@H]2CCN(C)C[C@@H]2c2ccccc2)[C@H](C)C3)n1` [Compound 66], the figure is about 28.2 nM; as for `C[C@@H]1Cc2cnc(NCc3ccn(C)n3)nc2CN1C(=O)[C@@H]1CCN(C)C[C@H]1c1cccc(OC(F)(F)F)c1` (relative stereo) [Compound 127], 1510 nM; as for `C[C@@H]1Cc2cnc(NC[C@H]3CCOC3)nc2CN1C(=O)[C@H]1CCN(C)C[C@@H]1c1ccccc1` [Compound 53], 575 nM.
Turning to `C[C@H]1Cc2cnc(NCc3ccn(C)n3)cc2CN1C(=O)[C@H]1CCN(C)C[C@@H]1c1ccccc1` (relative stereo) [Compound 174], the IC50 was 35.5 nM.
Turning to `C[C@@H]1Cc2cnc(NCc3ccn(C)c3)nc2CN1C(=O)[C@H]1CCN(C)C[C@@H]1c1ccccc1` [Compound 60], the IC50 is 214 nM.
The same measure, in the same setting: in the case of `CN1CC[C@H](C(=O)N2Cc3nc(NC4CCOCC4)ncc3C(C)(C)C2)[C@@H](c2ccccc2)C1` [Compound 193] it was 3630 nM.
Same read-out and setting: as for `CCn1ccc(CNc2ncc3c(n2)CN(C(=O)[C@H]2CCN(C)C[C@@H]2c2ccccc2)[C@H](C)C3)n1` [Compound 58], the figure is 22.9 nM.
The same measure, in the same setting: in the case of `C[C@H]1Cc2cnc(NC3CCOCC3)nc2CN1C(=O)N1CCN(C)C[C@H]1c1cccc(F)c1` (relative stereo) [Compound 212] it was 182 nM; in that of `C[C@@H]1Cc2cnc(NC3Cc4ccccc4C3)nc2CN1C(=O)[C@H]1CCN(C)C[C@@H]1c1ccccc1` [Compound 29], 12.6 nM; in that of `C[C@@H]1Cc2cnc(NC3CCN(S(C)(=O)=O)CC3)nc2CN1C(=O)N1CCN(C)C[C@@H]1c1ccccc1` [Compound 209], 209 nM.
As for `[2H]C([2H])(Nc1ncc2c(n1)CN(C(=O)[C@H]1CCN(C)C[C@@H]1c1ccccc1)[C@H](C)C2)c1ccccc1` [Compound 70], the IC50 is 148 nM.
The same measure, in the same setting: in the case of `C[C@@H]1Cc2cnc(NC3CCC(OC(F)F)CC3)nc2CN1C(=O)[C@H]1CCN(C)C[C@@H]1c1ccccc1` (stereo partly drawn) [Compound 69] it was 58.9 nM.
As to `C[C@@H]1Cc2cnc(NCc3ccccc3)nc2CN1C(=O)[C@H]1CCN(CC2COC2)C[C@@H]1c1ccccc1` (single isomer, unassigned) [Compound 155], the IC50 was 537 nM.
Still for that read-out and setting: in the case of `C[C@@H]1Cc2cnc(NC3CCC(OCC4CC4)CC3)nc2CN1C(=O)[C@H]1CCN(C)C[C@@H]1c1ccccc1` (stereo partly drawn) [Compound 3] it was 60.3 nM.
The same measure, in the same setting: as for `Cc1cc(CNc2ncc3c(n2)CN(C(=O)[C@H]2CCN(C)C[C@@H]2c2ccccc2)[C@H](C)C3)nn1C` [Compound 65], the figure is 6610 nM.
Regarding `Cc1cccc([C@H]2CN(C)CC[C@@H]2C(=O)N2Cc3nc(Nc4cnn(C)c4)ncc3C[C@H]2C)c1` (relative stereo) [Compound 126], the IC50 is about 3.89 nM.
The same measure, in the same setting: in the case of `Cc1ccc([C@@H]2CN(C)CC[C@H]2C(=O)N2Cc3nc(NC4CCOCC4)ncc3C[C@H]2C)cn1` (relative stereo) [Compound 108] it was 1700 nM; in that of `C[C@H](Nc1ncc2c(n1)CN(C(=O)[C@H]1CCN(C)C[C@@H]1c1ccccc1)[C@H](C)C2)c1ccn(C)n1` (single isomer, unassigned) [Compound 55], 4470 nM; in that of `CO[C@H]1CC[C@H](Nc2ncc3c(n2)CN(C(=O)[C@H]2CCN(C)C[C@@H]2c2ccc(C)nc2)[C@H](C)C3)CC1` (relative stereo) [Compound 110], 437 nM.
Same read-out and setting: as for `C[C@@H]1Cc2cnc(N[C@H](C)c3ccn(C)n3)nc2CN1C(=O)[C@H]1CCN(C)C[C@@H]1c1ccccc1` (single isomer, unassigned) [Compound 54], the figure is 123 nM.
For `C[C@@H]1Cc2cnc(NCc3ccccc3)nc2CN1C(=O)[C@H]1CCN(C)C[C@@H]1c1ccccc1` [Compound 43], the IC50 was 107 nM.
On the same count and under the same terms, as for `C[C@@H]1Cc2cnc(NCC3CCS(=O)(=O)C3)nc2CN1C(=O)[C@H]1CCN(C)C[C@@H]1c1ccccc1` (stereo partly drawn) [Compound 49], the figure is over 10000 nM; as for `C[C@@H]1Cc2cnc(NCc3cc(C(F)F)n(C)n3)nc2CN1C(=O)[C@H]1CCN(C)C[C@@H]1c1ccccc1` [Compound 56], 5130 nM; as for `C[C@@H]1Cc2cnc(NC3CCOCC3)nc2CN1C(=O)[C@@H]1CC[C@@H](N(C)C)CN1c1ccccc1` (mixture of isomers) [Compound 167], 5750 nM.
The same measure, in the same setting: as for `Cc1cn(C)nc1CNc1ncc2c(n1)CN(C(=O)[C@H]1CCN(C)C[C@@H]1c1ccccc1)[C@H](C)C2` [Compound 61], the figure is 912 nM.
Same read-out and setting: in the case of `C[C@@H]1Cc2cnc(NC3CCOCC3)nc2CN1C(=O)[C@H]1CCN(C)C[C@@H]1c1ccccc1` [Compound 47] it was about 70.8 nM.
For `C[C@@H]1Cc2cnc(Nc3cnn(C)c3)nc2CN1C(=O)[C@H]1CCN(C)C[C@@H]1c1ccccc1` [Compound 82], the IC50 is about 46.8 nM.

Still in this series, the particulars now being: challenged with compound for 3 hours.
Consider `CO[C@H]1CC[C@H](Nc2cc3c(cn2)C[C@H](C)N(C(=O)[C@@H]2CCN(C)C[C@H]2c2cccc(C)c2)C3)CC1` [Compound 177a], for which the “pRNA polII Ser5 (A549) pIC50” value is given as 6.98.
